Laboratory results as given in US5488110A, “Highly water soluble bis-naphthalimides useful as anticancer agents” (The Du Pont Merck Pharmaceutical Company, priority 1994, dated 1996).
In brackets after ≈: the same amount, converted by molar mass. Entries after “also recorded” stand apart in the source; their conditions may differ.

Legend:
DLD-2 human colon tumor = assay: In Vivo Human Tumor Xenograft Model, DLD-2; design: species or system human (xenografted in nude mice); conditions: nude mice, i.v. once daily for nine consecutive days; NCI criteria
Source text: (§1) The DLD-2 human colon tumor, MX-1 human mammary carcinoma, and LX-1 human lung tumor were originally obtained from a surgically removed primary colon carcinoma, breast tumor, and non-small lung carcinoma, respectively. The human tumor lines were maintained by serial passage in athymic nude mice. The MX-1 human mammary carcinoma and LX-1 human lung tumor are established tumors used by the NCI. The DLD-2, MX-1, and LX-1 tumor models have been well characterized.
The mice used in these experiments were outbred Swiss mice or BALB/c mice bearing the nude (nu/nu) gene. On day 0 male and female mice weighing 22-30 g are inoculated with 0.2 mL of a 25% tumor mince. This mince is prepared by mincing fresh tumor tissue, grown subcutaneously in passage mice, in sterile physiological saline. Palpable tumors weighing approximately 50 mg appear in the mice within 7-10 days after inoculation. The mice are pair matched by tumor weight and sex into groups of ten each and the test compounds and vehicle control are administered intravenously (i.v.) once daily for nine consecutive days. A >20% decrease in body weight on day 5 following compound administration is considered an indication of toxicity. Tumor measurements and body weights are recorded once a week. Fifteen to 18 days after the initial injection the mice are weighed, sacrificed and the tumors excised and weighed.
(§2) The efficacy of the test compounds is determined by the extent of tumor growth inhibition in treated versus vehicle-treated control mice. Initial tumor weights (mg) are calculated from the tumor dimensions (mm) measured from caliper measurements, using the formula for a prolate ellipsoid (mg of tumor weight=(length×width^2)/2). Net tumor weights are calculated for each of the treated groups and the vehicle-treated control group by subtracting the initial tumor weight from the final tumor weight on day 15. Results are expressed as a percentage decrease relative to the mean tumor weight for the control vehicle-treated group. [formula] Activity Criteria […]

[1] = test system: murine leukemia L1210 cells; assay: In vitro Growth Inhibitory Activity (MTT, 3 days); assay type: cell-based; conditions: Mus musculus, 72 h, 3 days at 37° C., read-out: ID50 (the source's name)
Description: L1210 cells were maintained in RPMI=1640 a medium supplemented with 10% heat inactivated fetal bovine serum and […] (RPMI-L). B16 cells were maintained in RPMI-1640 medium supplemented with 15% heat inactivated fetal bovine serum and antiobiotics (RPMI-C).
Exponential growing murine leukemia L1210 cells (1×10^3 cells) in 0.1 mL medium were seeded on day 0 in a 96-well microtiter plate. On day 1, 0.1 mL aliquot of medium containing graded concentrations of test analogs was added to the initial volume. After incubation at 37° C. in a humidified incubator for 3 days, the plates were centrifuged briefly and 0.1 mL of the growth medium was removed. Cell cultures were incubated with 50 μL of 3-(4,5-dimethylthiazol-2-yl)-2,5- diphenyltetrazolium bromide (MTT; 1 mg/ml in Dulbecco's phosphate buffer saline) for 4 hours at 37° C. The resulting purple formazan precipitate was solubilized with 0.2 mL of 0.04N HCl in isopropyl alcohol. Absorbance was read in a Titertek Multiskan MCC scaning well spectrophotometer (Flow Laboratories) at a test wavelength of 570 nm and a reference wavelength of 630 nm.
The ID50 values were determined by a computer program that fit all of the data (8 determinations per concentration and 12 concentrations per test analog) to the following equation:
Y=((Am-Ao)/(1+(X/ID50)n))+Ao
where: Am=absorbance of the control cells; Ao=absorbance of the cells in the presence of highest drug concentration; Y=observed absorbance; X=drug concentration; ID50 =dose of drug that inhibits the growth of cells to one half that of the control cells.

[2] = UV Method For Determining Water Solubility; assay type: physicochemical; conditions: for solubility: water, room temperature, saturated solution standing over excess sample 15 to 20 hours, UV
Description: UV Method For Determining Water Solubility:
The ultraviolet spectrum is taken at room temperature of a saturated solution of the sample (saturated solution being defined as a water solution standing over excess sample for 15 to 20 hours with no heat being applied). A standard solution of the sample is obtained in water if possible. When the solubility in water is too low to do this (<1 mg/100 ml), a mg of the sample is dissolved in DMSO and diluted to 100 ml with water. Molar or gram extinction coefficients are calculated for the standard solutions and these values are used to determine the concentration of the saturated solution.

MX-1 human breast tumor = assay: In Vivo Human Tumor Xenograft Model, MX-1; design: species or system human (xenografted in nude mice); conditions: nude mice, i.v. once daily for nine consecutive days; NCI criteria
Source text: as §1
(§3) The mice used in these experiments were outbred Swiss mice or BALB/c mice bearing the nude (nu/nu) gene. On day 0 male and female mice weighing 22-30 g are inoculated with 0.2 mL of a 25% tumor mince. […] Tumor measurements and body weights are recorded once a week. […]
as §2, with “group.” for “group. [formula] Activity Criteria”

LX-1 human lung tumor = assay: In Vivo Human Tumor Xenograft Model, LX-1; design: species or system human (xenografted in nude mice); conditions: nude mice, i.v. once daily for nine consecutive days; NCI criteria
Source text: as §1, §3
as §2, with “group.” for “group. [formula] Activity Criteria”

SMILES	activity against DLD-2 human colon tumor in vivo (tumor growth inhibition) (DLD-2 human colon tumor)	IC50 [1]	solubility [2]	water solubility (in words) ([2]; in words, relative to related compounds)	activity against MX-1 human breast tumor in vivo (tumor growth inhibition) (MX-1 human breast tumor)	activity against LX-1 human lung tumor in vivo (tumor growth inhibition) (LX-1 human lung tumor)
CN(CCNCCN1C(=O)c2cccc3cc([N+](=O)[O-])cc(c23)C1=O)CCN1C(=O)c2cccc3cc([N+](=O)[O-])cc(c23)C1=O [Example 2, 2-[2-[N-methyl-N-[2-[[2-(5-nitro-1,2-dioxo-1H-benz[de]isoquinoline-2(3H)-yl)ethyl]amino]ethyl]amino]ethyl]-5-nitro-1H-benz[de]isoquinoline-1,3(2H)-dione methanesulfonate (1:2)]	excellent to outstanding	< 0.01 µg/mL	9600 µg/mL			
CN(CCN(C)CCN1C(=O)c2cccc3cc([N+](=O)[O-])cc(c23)C1=O)CCN1C(=O)c2cccc3cc([N+](=O)[O-])cc(c23)C1=O [Example 1, 2,2'-[1,2-Ethanediylbis(methylimino-2,1-ethanediyl)]-bis[5-nitro-1H-benz[de]isoquinoline-1,3(2H)-dione]methanesulfonate (1:2)]	excellent to outstanding	0.0115 µg/mL (≈ 0.0184 µM)	> 26400 µg/mL	unexpected increased water solubility; also recorded: dramatic unexpected increase in water solubility	good to excellent (inhibition of ≥90% is considered good to excellent activity)	
O=C1c2cccc3cc([N+](=O)[O-])cc(c23)C(=O)N1CCNCCNCCN1C(=O)c2cccc3cc([N+](=O)[O-])cc(c23)C1=O [Example 3, 2,2'-[1,2-Ethanediylbis(imino-2,1-ethanediyl)]-bis[5-nitro-1H-benz[de]isoquinoline-1,3(2H)-dione]methanesulfonate (1:2)]	excellent to outstanding	0.009 µg/mL (≈ 0.0151 µM)	600 µg/mL (≈ 1010 µM)		excellent to outstanding	moderate (Tumor growth inhibition of 58-89% in the DLD-2 assay is considered moderate activity)
